# Assays:
# [1] = system: human pre-adipocyte fibroblasts; test: Adipogenesis of human pre-adipocyte fibroblasts in adipogenic medium (Thy1 siRNA, SU6656); assay type: cell-based
# Description: 3T3-L1 cells or primary fibroblasts were cultured to confluence before addition of the adipogenic medium. Cells were treated with an adipogenic medium containing 0.5 mM 3-isobutyl-1-methylxanthine, 0.25 μM dexamethasone, and 1 μg/ml insulin (all three from Sigma Aldrich, St. Louis, Mo.), 2 μM rosiglitazone (Cayman) for two days. After two days medium was replaced with dexamethasone, insulin and rosiglitazone for another 5-8 days. Media was replaced every 2 days through the duration of the experiment. After differentiation cells were analyzed for lipid accumulation and adipogenesis by Oil-red-O (Sigma Aldrich, St. Louis, Mo.) staining and AdipoRed (Cayman) staining as described previously. Lehmann et al., “Novel Anti-adipogenic Activity Produced by Human Fibroblasts,” Am J Physiol Cell Physiol 299(3):C672-81 (2010), which is hereby incorporated by reference in its entirety.
# 5-8×10^4 or 1×10^5 cells were seeded into 24 well or 6 well cell culture plates (Corning) and subsequently were transiently transfected with 50-200 nM of siRNA (Ambion) using Lipofectamine 2000 (Invitrogen) as the transfection reagent and following the manufacture's protocol. The cells were incubated with siRNA specific for Thy1 specific or a corresponding non-specific control siRNA for 3-4 days before the cells were subjected to adipogenic differentiation experiments as described above. At the start of the adipogenic differentiation experiment, the cells were again transiently transfected with 100 nM Thy1-specific or control siRNA.
# Thy1 specific or control siRNA was introduced into human pre-adipocyte fibroblasts using Lipofectamine 2000. Fibroblasts were then treated with an adipogenic medium and adipogenesis was measured by visual inspection of lipid droplets, FABP4 expression and lipid accumulation. Total Thy1 protein expression and Thy1 surface expression were analyzed by western blot and flow cytometry, respectively. […] Cell images were captured to show the presence of lipid droplets in fibroblasts treated with adipogenic medium, and are shown in FIG. 12B. […]
# Erk1/2 = test: Western blot for phospho-Erk1/2 in 3T3-L1 cells; assay type: cell-based, mouse; conditions: Thy1 expressed in 3T3-L1 cells
# Description: 3T3-L1 cells infected with a control or Thy1-expressing lentivirus (LV) were treated with 10 nM insulin-like growth factor (IGF)-1 for 0, 5, or 10 minutes. Cells were treated as described, then whole cell lysates were harvested and analyzed by western blot for phospho-Erk1/2 and GAPDH expression (FIG. 18A). Western blot images were analyzed by densitometry and phospho-Erk1/2 levels were normalized to GAPDH to adjust for total protein variations (FIG. 18B).
# PPARγ phosphorylation at serine 82 (S82) inhibits ligand binding and severely reduces its ability to promote adipogenesis. […] To investigate if Thy1 regulates the Erk pathway, Thy1 was expressed in 3T3-L1 cells and the activity of Erk1/2 (which corresponds to phospho-Erk) was monitored by western blotting (see FIGS. 18A and 18B). […]
# PPARγ = test: Western blot for PPARγ protein in 3T3-L1 cells; assay type: cell-based, mouse; conditions: expression of Thy1 in 3T3-L1 preadipocyte fibroblasts
# Text: Orbital fibroblasts from two individual human donors were separated into Thy1^− and Thy1+ subsets. Cells were harvested and analyzed by western blotting for PPARγ and actin (loading control). […] In addition, 3T3-L1 cells were transduced with control or human Thy1− encoding lentiviral (Lv) particles.
# To test how Thy1 affects PPARγ, it was first considered whether Thy1 would down-regulate the expression of PPARγ protein. However, two different strains of human TED orbital fibroblasts, sorted into Thy1+ or Thy1^− subsets, expressed similar levels of PPARγ (FIG. 15A). […] Thus, other ways that Thy1 could influence the function of PPARγ were considered, as described below.
# Fyn = test: Western blot for phospho-STAT5 (Fyn mediated phosphorylation); assay type: cell-based, human; conditions: Thy1 expression
# [2] = Diet induced obesity in mice on a high fat diet, soluble Thy1 injected; assay type: in vivo, mouse; conditions: high fat diet (60% kcals from fat), minimum of 8 weeks, 0.2 or 0.4 mg/kg intravenous or subcutaneous
# Text: Milligram quantities of soluble Thy1 will be injected into mice receiving a high fat (60% kcals from fat) diet.
# Mice fed a high fat diet and treated as in Table 2 will be weighed weekly for the duration of the experiment (minimum of 8 weeks). Following the study, mice will be sacked for fat depot quantification, histologic analysis and fat tissue will be analyzed by western blot for the adipogenic markers FABP4, C/EBPα, Fyn, and phospho-Fyn. Serum samples will also be acquired for analysis of Thy1, adiponectin and glucose levels.
# human stem cells = test: Adipogenesis of human stem cells / preadipocytes given a proadipogenic cocktail; assay type: cell-based
# Text: Thy1 (or Thy-1, also termed CD90) is an N-glycosylated, glycophosphatidylinositol (GPI)-anchored membrane protein that was originally identified as a surface marker on mouse T cells and thymocytes. Thy1 is a surface marker of unknown function that is expressed on some stem cells and some fibroblasts. While Thy1 was discovered more than 35 years ago, its molecular function remains a mystery. The inventors of the present application have discovered that Thy1 is more than a surface marker; rather, it can control the fate of cells by preventing adipogenesis. […] Similarly, deliberate genetic over-expression of Thy1 has the same effect, preventing cells from becoming adipocytes.
# Thy1 [3] = test: Thy1 expression in mouse MSCs cultured with obesogens (flow cytometry, western blotting); assay type: cell-based; conditions: 96 hrs; for Thy1, western blotting: concentrations in figure
# Description: Mouse MSCs were cultured with obesogens for 96 hrs, harvested, and analyzed for Thy1 expression by flow cytometry or western blotting.
# Thy1 [4] = test: Thy1 expression in hMSCs treated with obesogens (qPCR, flow cytometry); assay type: cell-based, human
# Description: In particular, hMSCs were induced to adipocytes with a rosiglitazone cocktail (adipogenic) or cocktail containing the putative obesogens BPA (1 μM), TBBPA (5 μM), or TBT (100 nM). […] The obesogen doses selected are based on literature and represent concentrations proposed to be found in human tissues. Roos et al., “Circulating Levels of Persistent Organic Pollutants in Relation to Visceral and Subcutaneous Adipose Tissue by Abdominal MRI,” Obesity (Silver Spring) (2012) and Antizar-Ladislao, B, “Environmental Levels, Toxicity and Human Exposure to Tributyltin (TBT)-Contaminated Marine Environment. A Review,” Environ Int 34(2):292-308 (2008), each of which is hereby incorporated by reference in its entirety. As noted above, the cells were cultured in adipogenic medium containing rosiglitazone, a PPARγ ligand that promotes adipogenesis and obesity, and the noted putative obesogens.
# qPCR analysis of the mRNA levels of Thy1 and the adipogenic marker FABP4 was conducted. […] The same samples as in FIG. 4A were used to measure Thy1 mRNA levels by qPCR. […] Thy1 and FABP4 levels were normalized to TBP mRNA levels (control gene).
# hMSCs were also treated with vehicle (DMSO), 20 uM TBBPA, or 10 uM rosiglitazone for 72 hrs, harvested and stained with a fluorescent anti-Thy1 antibody for analysis of Thy1 by flow cytometry.
# [5] = induced to differentiate into adipocytes
# [6] = human and mouse mesenchymal stem cells
molecule,measurement,setting,value
CN(C)S(=O)(=O)c1ccc2c(c1)/C(=C/c1cc3c([nH]1)CCCC3)C(=O)N2 [SU6656],"adipogenic effect of Thy1 siRNA (FABP4 mRNA, lipid accumulation)",[1]; Thy1 siRNA followed by adipocyte induction,ablated
same,"FABP4 protein expression, % of control, western blot",[1]; [5],30%
same,"lipid accumulation, % of control",[1]; [5],55%
"Thy1: N-glycosylated, GPI-anchored membrane protein; human Thy1 SEQ ID NO:1; soluble form lacks the GPI anchor",increase of Erk1/2 phosphorylation compared to control 3T3-L1 cells,Erk1/2,greater than 3 fold
same,PPARγ protein levels,PPARγ,did not alter
same,"phospho-STAT5 levels, western blotting",Fyn,reduces
same,fat accumulation,[2],significantly less fat accumulation
same,weight gain,[2],significantly less weight
same,human stem cell adipogenesis,human stem cells,blunts
same,becoming fat cells,"human stem cells; human and mouse preadipocytes and primary human stem cells, proadipogenic cocktail containing a PPARγ ligand",prevent
"CCC[CH2][Sn]([CH2]CCC)[CH2]CCC [TBT, tributlytin]","Thy1, western blotting",Thy1 [3],reduction
same,Thy1 expression,Thy1 [4]; MSCs treated with obesogens,reduced
same,Thy1 expression,Thy1 [4]; [6],dramatically reduced
"CC(C)(c1cc(Br)c(O)c(Br)c1)c1cc(Br)c(O)c(Br)c1 [TBBPA, tetrabromobisphenol-A]","Thy1 surface expression, Mean Fluorescent Intensity",Thy1 [3]; 5 μM,dramatic reduction
same,"Thy1, western blotting",Thy1 [3],reduction
same,Thy1 expression,Thy1 [4]; MSCs treated with obesogens,reduced
same,"surface expression of Thy1, flow cytometry","Thy1 [4]; hMSCs, 20 uM, 72 hrs, vs vehicle (DMSO)",decreased
same,Thy1 expression,Thy1 [4]; [6],dramatically reduced

# — patent US9694050B2, “THY1 (CD90) as a novel therapy to control adipose tissue accumulation” (University of Rochester, priority 2012, dated 2017)
